Assay results published in PubChem BioAssay AID248 (DTP/NCI, 2004).
“And” between values parts separate entries of the source, which are not always exact repeats. Equal entries are not always repeated. Toxic doses and inconclusive results are not listed. No stated cut-off is given here; in the data, active means T/C of 150% or more; inactive means T/C below 125%.

Tested on: L1210 leukemia ip in BDF1 mice, survival T/C
Assay: NCI In Vivo Anticancer Drug Screen. Data for tumor model L1210 Leukemia (intraperitoneal) in B6D2F1 (BDF1) mice
Conditions: endpoint: mean survival time, higher = longer survival
Outline: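 Transplanted-tumor mice were given test agent; controls received vehicle only. Survival readings from the two groups were divided (treated over control).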

[1] = dose: 100.0 mg/kg/injection, schedule: Q04DX003 (ip), vehicle: saline with Tween-80
[2] = dose: 200.0 mg/kg/injection, schedule: Q04DX003 (ip), vehicle: saline with Tween-80
[3] = dose: 400.0 mg/kg/injection, schedule: Q04DX003 (ip), vehicle: saline with Tween-80
[4] = dose: 100.0 mg/kg/injection, schedule: Q01DX001 (ip), vehicle: carboxymethylcellulose (CMC)
[5] = dose: 200.0 mg/kg/injection, schedule: Q01DX001 (ip), vehicle: carboxymethylcellulose (CMC)
[6] = dose: 400.0 mg/kg/injection, schedule: Q01DX001 (ip), vehicle: carboxymethylcellulose (CMC)
[7] = dose: 50.0 mg/kg/injection, schedule: Q01DX001 (ip), vehicle: saline
[8] = dose: 100.0 mg/kg/injection, schedule: Q01DX001 (ip), vehicle: saline
[9] = dose: 200.0 mg/kg/injection, schedule: Q01DX001 (ip), vehicle: saline
[10] = dose: 400.0 mg/kg/injection, schedule: Q01DX001 (ip), vehicle: saline
[11] = dose: 100.0 mg/kg/injection, schedule: Q04DX003 (ip), vehicle: saline
[12] = dose: 200.0 mg/kg/injection, schedule: Q04DX003 (ip), vehicle: saline
[13] = dose: 100.0 mg/kg/injection, schedule: Q01DX009 (ip), vehicle: Klucel (hydroxypropylcellulose) (HPC)
[14] = dose: 200.0 mg/kg/injection, schedule: Q01DX009 (ip), vehicle: Klucel (hydroxypropylcellulose) (HPC)
[15] = dose: 400.0 mg/kg/injection, schedule: Q01DX009 (ip), vehicle: Klucel (hydroxypropylcellulose) (HPC)
[16] = dose: 50.0 mg/kg/injection, schedule: Q01DX009 (ip), vehicle: saline with Tween-80
[17] = dose: 100.0 mg/kg/injection, schedule: Q01DX009 (ip), vehicle: saline with Tween-80
[18] = dose: 200.0 mg/kg/injection, schedule: Q01DX009 (ip), vehicle: saline with Tween-80
[19] = dose: 100.0 mg/kg/injection, schedule: Q04DX003 (ip), vehicle: Klucel (hydroxypropylcellulose) (HPC)
[20] = dose: 400.0 mg/kg/injection, schedule: Q01DX009 (ip), vehicle: saline with Tween-80

Measured: T/C

CC(=O)CC(=O)N1CCCCCC1
inactive: dose: 100.0 mg/kg/injection, schedule: Q01DX009 (ip), vehicle: gum acacia 93 % of control | [1] 98 % of control | dose: 200.0 mg/kg/injection, schedule: Q01DX009 (ip), vehicle: gum acacia 98 % of control | [2] 95 % of control | dose: 400.0 mg/kg/injection, schedule: Q01DX009 (ip), vehicle: gum acacia 101 % of control | [3] 102 % of control

S=C(S)NC1c2ccccc2-c2ccccc21 (tested in a mixture with another compound)
inactive: [4] 94 % of control | [5] 90 % of control | [6] 96 % of control

CC1(C)C2CCC(CCO)C1C2 (stereo unspecified)
inactive: dose: 12.5 mg/kg/injection, schedule: Q04DX003 (ip), vehicle: saline with Tween-80 92 % of control | dose: 25.0 mg/kg/injection, schedule: Q01DX009 (ip), vehicle: saline 96 % of control | dose: 25.0 mg/kg/injection, schedule: Q04DX003 (ip), vehicle: saline with Tween-80 88 % of control | dose: 50.0 mg/kg/injection, schedule: Q01DX009 (ip), vehicle: saline 92 % of control | dose: 50.0 mg/kg/injection, schedule: Q04DX003 (ip), vehicle: saline with Tween-80 95 % of control | dose: 100.0 mg/kg/injection, schedule: Q01DX009 (ip), vehicle: saline 88 % of control | [1] 92 % of control

COc1ccccc1CN1CCCN(Cc2ccccc2OC)C1c1cc(Cl)cc(Cl)c1O
inactive: [7] 98 % of control | [8] 111 % of control | [9] 104 % of control | [10] 98 % of control

O=C1NC(c2ccccc2)(c2ccccc2)C(=O)N1CCCl
inactive: dose: 100.0 mg/kg/injection, schedule: Q01DX009 (ip), vehicle: acetone 102 % of control | [11] 101 % of control | dose: 200.0 mg/kg/injection, schedule: Q01DX009 (ip), vehicle: acetone 101 % of control | [12] 95 % of control | dose: 400.0 mg/kg/injection, schedule: Q01DX009 (ip), vehicle: acetone 104 % of control | dose: 400.0 mg/kg/injection, schedule: Q04DX003 (ip), vehicle: saline 110 % of control

O=C(Nc1ccccc1F)OCCOc1ccccc1Cl
inactive: [13] 115 % of control | [14] 112 % of control | [15] 124 % of control

O=C1NC(=O)C([n+]2ccccc2)=C1[O-]
inactive: dose: 25.0 mg/kg/injection, schedule: Q04DX003 (ip), vehicle: saline 110 % of control | dose: 50.0 mg/kg/injection, schedule: Q04DX003 (ip), vehicle: saline 110 % of control | [11] 94 % of control and 100 % of control | [12] 96 % of control

O=C(C1CC1c1ccccc1)N1CCN(c2ccccc2)CC1 (stereo unspecified)
inactive: [13] 98 % of control | [14] 90 % of control | [15] 100 % of control

CN(C)C(=Nc1ccccc1)N(C)N
inactive: dose: 37.5 mg/kg/injection, schedule: Q04DX003 (ip), vehicle: saline 102 % of control | dose: 75.0 mg/kg/injection, schedule: Q04DX003 (ip), vehicle: saline 101 % of control | dose: 150.0 mg/kg/injection, schedule: Q04DX003 (ip), vehicle: saline 102 % of control

COc1cc2c(c(OC)c1OC)-c1ccc(SC)c(=O)cc1C(NC1OC(CO)C(O)C(O)C1O)CC2 (stereo unspecified)
inactive: dose: 12.5 mg/kg/injection, schedule: Q01DX005 (ip), vehicle: saline 100 % of control | dose: 25.0 mg/kg/injection, schedule: Q01DX005 (ip), vehicle: saline 100 % of control | dose: 50.0 mg/kg/injection, schedule: Q01DX005 (ip), vehicle: saline 112 % of control and 119 % of control | dose: 100.0 mg/kg/injection, schedule: Q01DX005 (ip), vehicle: saline 116 % of control

O=C1c2ccccc2C(=O)N1CNc1ccc2c(c1)OCO2
inactive: [16] 108 % of control | [17] 97 % of control | [18] 90 % of control

CCc1c(Cl)c(C)c(Cl)c(O)c1Cl
inactive: dose: 100.0 mg/kg/injection, schedule: Q04DX003 (ip), vehicle: other 102 % of control | dose: 200.0 mg/kg/injection, schedule: Q04DX003 (ip), vehicle: other 93 % of control

O=S(=O)(F)c1ccccc1S(=O)(=O)Cl
inactive: dose: 25.0 mg/kg/injection, schedule: Q04DX003 (ip), vehicle: Klucel (hydroxypropylcellulose) (HPC) 97 % of control | dose: 50.0 mg/kg/injection, schedule: Q04DX003 (ip), vehicle: Klucel (hydroxypropylcellulose) (HPC) 92 % of control | [4] 95 % of control | [19] 92 % of control

CCOc1ccc2[nH]c(C)c(CC(=O)O)c2c1
inactive: dose: 100.0 mg/kg/injection, schedule: Q01DX001 (ip), vehicle: saline with Tween-80 97 % of control | dose: 200.0 mg/kg/injection, schedule: Q01DX001 (ip), vehicle: saline with Tween-80 103 % of control | dose: 400.0 mg/kg/injection, schedule: Q01DX001 (ip), vehicle: saline with Tween-80 97 % of control

C=CCOc1ccc(Cl)cc1
inactive: [1] 90 % of control | [2] 94 % of control

NCCCC(=O)NCCCCCCNCCCCCCNC(=O)CCCN
inactive: [7] 98 % of control | [8] 104 % of control

CO/N=C1/C=C(C)C(=O)C(C)=C1C
inactive: [7] 94 % of control | [8] 97 % of control | [13] 102 % of control | [19] 97 % of control | [9] 105 % of control | [14] 98 % of control | dose: 200.0 mg/kg/injection, schedule: Q04DX003 (ip), vehicle: Klucel (hydroxypropylcellulose) (HPC) 92 % of control | [10] 94 % of control | [15] 95 % of control | dose: 400.0 mg/kg/injection, schedule: Q04DX003 (ip), vehicle: Klucel (hydroxypropylcellulose) (HPC) 101 % of control

CCCC(=O)c1c(O)cc(O)cc1O
inactive: [4] 98 % of control | [5] 96 % of control | [6] 93 % of control

O=C(Oc1ccc2ccc(=O)oc2c1)N(CCCl)CCCl
inactive: dose: 50.0 mg/kg/injection, schedule: Q01DX009 (ip), vehicle: Klucel (hydroxypropylcellulose) (HPC) 97 % of control | [13] 90 % of control | [14] 101 % of control

O=C1NC(=O)C(c2ccc(Cl)cc2)N1 (stereo unspecified)
inactive: [7] 100 % of control | [8] 94 % of control | [9] 97 % of control | [10] 96 % of control

COc1cc(OC)cc(C(=O)NCCCl)c1
inactive: dose: 50.0 mg/kg/injection, schedule: Q01DX001 (ip), vehicle: carboxymethylcellulose (CMC) 101 % of control | [4] 110 % of control | [5] 107 % of control | [6] 107 % of control

O=C(O)c1cc([N+](=O)[O-])ccc1Nc1cccc2ccccc12
inactive: [11] 90 % of control | [12] 97 % of control

C1=C(c2ccccc2)CCCCC1
inactive: [17] 87 % of control | [1] 95 % of control | [18] 96 % of control | [2] 100 % of control | [20] 99 % of control | [3] 98 % of control

O=C(CCN1CC=C(c2ccccc2)CC1)c1ccc(Oc2ccccc2)cc1
inactive: [16] 100 % of control | [17] 96 % of control | [1] 96 % of control | [18] 105 % of control | [2] 94 % of control

CC(C)(CC(=O)O)NC(=O)c1ccccc1
inactive: dose: 100.0 mg/kg/injection, schedule: Q01DX001 (ip), vehicle: other 95 % of control | dose: 200.0 mg/kg/injection, schedule: Q01DX001 (ip), vehicle: other 106 % of control | dose: 400.0 mg/kg/injection, schedule: Q01DX001 (ip), vehicle: other 103 % of control

O=C1CSCc2ccccc21
inactive: dose: 100.0 mg/kg/injection, schedule: Q04DX002 (ip), vehicle: Klucel (hydroxypropylcellulose) (HPC) 103 % of control | dose: 200.0 mg/kg/injection, schedule: Q04DX002 (ip), vehicle: Klucel (hydroxypropylcellulose) (HPC) 95 % of control | dose: 400.0 mg/kg/injection, schedule: Q04DX002 (ip), vehicle: Klucel (hydroxypropylcellulose) (HPC) 95 % of control

C/C=C/C[n+]1c(C)ccc2ccccc21
inactive: dose: 12.5 mg/kg/injection, schedule: Q01DX001 (ip), vehicle: saline 98 % of control | dose: 25.0 mg/kg/injection, schedule: Q01DX001 (ip), vehicle: saline 96 % of control | [7] 93 % of control

Cc1ccc(S(=O)(=O)N/N=C/c2cccs2)cc1
inactive: [17] 90 % of control | [1] 98 % of control | [18] 88 % of control | [2] 98 % of control | [20] 91 % of control | [3] 109 % of control
